# Patent US5656600A, “α-ketoamide derivatives as inhibitors of thrombosis” (Corvas International, Inc., priority 1993, dated 1997)
# Assays:
# [1] = system: Rat Venous Stasis Model; test: Venous stasis in rats (thromboplastin plus stasis, inferior vena cava); format: in vivo; details: for % Clot: mean ± S.E.M.
# Description: This is one of the most commonly used models in the evaluation of antithrombotic compounds. Hladovec, J. Thromb. […] Talbot, M. D., et. al., Thromb.
# Male Harlan Sprague Dawley rats (420-450 g) were acclimated at least 72 hours prior to use. The animals were fasted for 12 hours prior to surgery with free access to water. The animals were anesthetized with a sodium pentobarbital (Nembutal) given intraperitoneally at a dose of 50 mg/kg body weight and placed on a isothermal pad to maintain body temperature. The level of anesthesia was monitored every 15 minutes by: neuro-response to a tail pinch, respiration and body core temperature. The desired depth of surgical anesthesia was maintained by administering subsequent doses (5 mg/kg) intravenously. The left femoral artery was catheterized with polyethylene tubing (PE50) using standard procedures for blood pressure monitoring and blood sampling. The left and right femoral veins were catheterized with PE50 tubing for delivery of anesthetic and test compounds respectively.
# Blood pressure, heart rate, core temperature and respiration were monitored continuously.
# The abdomen of the animals is opened by making a vertical midline incision followed by isolation of the IVC using dissection. The segment extends from below the renal to above the iliac vessels (about 2 cm in length). The peripheral blood vessels are tied off and a ligature is loosely placed at the distal and proximal ends of the isolated segment. Rabbit brain thromboplastin (RBT) (Sigma Chemical Co., St. Louis MO) is prepared by resuspending the contents of the vial with 2 mL of sterile saline pre-warmed to 37° C. At the end of the 30 minute infusion period, RBT is systemically administered as a bolus injection (1.5 mL/kg) via the femoral catheter. Stasis is induced within the isolated IVC segment by securing the proximal and distal ligature 10 sec following the administration of the RBT. Following a 30 minute period of stasis the tied off IVC segment is removed and the contents weighed. Clot formation was defined as %clot: [Weight of the isolated clot/(Weight of the intact segment-the weight of the empty segment)]×100. This method was used to correct for slight differences in segment size and fluid content.
# Following termination of the experiment the animal was euthanized with a 120 mg/kg dose of Nembutal.
# [2] = system: washed human platelets; test: Thrombin-induced aggregation in washed human platelets; format: cell-based
# Description: Washed human platelets were prepared from freshly isolated venous blood obtained from normal, healthy volunteers who had not taken any medication which might affect platelet function, according to the procedure of Connolly, T. M. et al., J. Biol. Chem., 267:6893 (1992). Inhibitors, were added in a volume of 20 μL to 350 μL of prewarmed washed platelets in a siliconized glass cuvette (Chronolog Corp., Havertown, PA) followed by 10 μL of 0.25 M CaCl2. The rate and extent of aggregation were measured for 5-15 minutes by the change in light transmission in a stirred cuvette, following the addition of 20 μL of […] (final concentration 2 nM), using a Chronolog Whole Blood Aggregometer equipped with the Aggro/Link data acquisition system (Chronolog Corp., Hayertown, PA). The extent of inhibition was determined by measuring the change in the amplitude (extent) of the aggregation response compared to the control (uninhibited) response over the 1 minute period following the addition of thrombin.
substance,measurement,setting,value
(D--Phe)--Pro--Arg--Pro--(Gly4 --Asn--Gly--Asp--Phe--Glu--Glu--IIe--Pro--Glu--Glu--Tyr--Leu--OH [Compound 25],% Clot,[1]; 0.1 mg/kg i.v. bolus + 40 μg/kg/min i.v. infusion,25.75 ± 3.71%
same,% Clot,[1]; 0.1 mg/kg i.v. bolus + 60 μg/kg/min i.v. infusion,26.50 ± 3.59%
same,% Clot,[1]; 0.1 mg/kg i.v. bolus + 80 μg/kg/min i.v. infusion,25.75 ± 0.41%
same,effect on venous thrombus formation induced by stasis and thromboplastin,[1]; summary in words,did not have any effect of thrombus formation
same,persistence of inhibition of aggregation over the 15 minute course of the assay,"[2]; 20nM (compound 8), same or higher concentrations (Hirulog-1), FIG. 4",did not cause sustained inhibition of the aggregation response
same,IC50,"[2]; α-thrombin 2 nM, extent of aggregation over 1 minute after thrombin, mean ± standard deviation, three determinations",16 ± 3 nM
